This note sets out measurements from patent EP4737454A1, “GLP-1 RECEPTOR AGONIST, AND PREPARATION METHOD THEREFOR AND USE THEREOF” (Wayne Biotechnology Co., Ltd., priority 2023, dated 2025).

The structures appear in SMILES notation.

Human GLP-1R, sequence (P43220 24-463): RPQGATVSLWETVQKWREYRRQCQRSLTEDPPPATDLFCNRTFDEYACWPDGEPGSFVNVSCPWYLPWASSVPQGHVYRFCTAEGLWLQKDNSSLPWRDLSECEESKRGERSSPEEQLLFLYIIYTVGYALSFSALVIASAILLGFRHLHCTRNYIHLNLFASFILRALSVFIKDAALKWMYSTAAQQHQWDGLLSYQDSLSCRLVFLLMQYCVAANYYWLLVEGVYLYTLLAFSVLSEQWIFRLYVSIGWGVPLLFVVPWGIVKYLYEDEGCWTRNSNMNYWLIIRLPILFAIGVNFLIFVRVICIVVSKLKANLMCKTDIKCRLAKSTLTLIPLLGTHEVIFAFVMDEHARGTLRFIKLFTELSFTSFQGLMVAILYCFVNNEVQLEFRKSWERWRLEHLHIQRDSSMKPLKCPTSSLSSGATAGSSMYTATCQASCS

The test has as its target Human GLP-1R (Homo sapiens, UniProt P43220). As to the kind of experiment: cAMP level determination in human GLP-1R stably transfected HEK293T cells (HTRF cAMP kit). The class given is cell-based. To be noted: 37°C 30 min. The method, then: Human GLP-1R HEK293T stably transfected cells were digested with trypsin, terminated with DMEM total (without p/s), centrifuged and washed twice with 1X Stimulation buffer, then resuspended in 1X stimulation buffer and counted. The cells were then prepared as a 1 Million/mL cell suspension in stimulation buffer. Compound powder was first prepared as a 10 mM stock solution in DMSO, then diluted to 2 mM with DMSO, and further prepared as 2X compound in 1X stimulation buffer (Cisbio kit buffer with freshly added IBMX at a final concentration of 0.5 mM). The top dose final concentration was 2000 nM, with a final DMSO concentration of 0.2%, diluted in a 1:3 gradient for 11 gradients.
According to the layout, 5 µl of compound was added to each well; Min wells contained 100 nM GLP-1, and Max wells contained 0.2% DMSO in 1X stimulation buffer. 5 µl of cell suspension was added to each well, centrifuged at 300 rpm at room temperature for 1 min, then incubated at 37°C for 30 min. 2X cAMP standards were prepared in 1X Stimulation buffer, with a top final concentration of 2.8 µM, diluted in a 1:3 gradient for 12 doses. According to the layout, 10 µl was added to each well. Finally, d2 and antibody were diluted 20-fold in 1X Detection buffer (Cisbio kit buffer), and 5 µl of each was added to each well according to the layout. After centrifugation at 300 rpm at room temperature for 1 min, the plate was incubated at room temperature for 2 hr.
Stimulation% was calculated based on Min and Max readings (665nm/615nm ratio) using the formula: 100*(ratio Max well - ratio test well)/(ratio Max well - ratio Min well). The cAMP concentration in each test well was derived from the cAMP standard curve, and the data was analyzed using GraphPad Prism 9 to plot four-parameter fit curves and calculate EC50 values using the formula: Y=Bottom + (Top-Bottom)/(1+10^((LogEC50-X)*HillSlope)). Table 1: cAMP Level Determination in Human GLP-1R Stably Transfected HEK293T Cells
A word on the EC50: it is the concentration that produces a half-maximal response. A high value points to weaker potency. For the compound `Cc1cc(-n2ccn(-c3c4c(nn3-c3cc(C)c(F)c(C)c3)CCN(C(=O)c3cc5cc(C6CCOC(C)(C)C6)ccc5n3[C@@]3(c5nc(=O)o[nH]5)C[C@@H]3C)[C@H]4C)c2=O)ccc1C(=O)N(C)C1(C)CC1` (some centres unmarked) [Compound 35], the EC50 is 20 nM. `Cc1cc(-n2nc3c(c2-n2ccn(-c4ccc(C(F)(F)F)c(C#N)c4)c2=O)[C@H](C)N(C(=O)c2cc4cc(C5CCOC(C)(C)C5)ccc4n2[C@@]2(c4nc(=O)o[nH]4)C[C@@H]2C)CC3)cc(C)c1F` (some centres unmarked) [Compound 84]: the midpoint of the response, the EC50, lay at 9.87 nM. As for `Cc1cc(-n2nc3c(c2-n2ccn(-c4ccc(C#N)c(OC(F)F)c4)c2=O)[C@H](C)N(C(=O)c2cc4cc(C5CCOC(C)(C)C5)ccc4n2[C@@]2(c4nc(=O)o[nH]4)C[C@@H]2C)CC3)cc(C)c1F` (some centres unmarked) [Compound 95], the figure is 17.6 nM. As for `Cc1cc(-n2nc3c(c2-n2ccn(-c4ccc(N(C)C(=O)C5(C(F)(F)F)CC5)cc4)c2=O)[C@H](C)N(C(=O)c2cc4cc(C5CCOC(C)(C)C5)ccc4n2[C@@]2(c4noc(=O)[nH]4)C[C@@H]2C)CC3)cc(C)c1F` (some centres unmarked) [Compound 69], the figure is 10.3 nM; as for `Cc1cc(-n2nc3c(c2-n2ccn(-c4ccc(N(C)C5CC5)c(Cl)c4)c2=O)[C@H](C)N(C(=O)c2cc4cc(C5CCOC(C)(C)C5)ccc4n2[C@@]2(c4nc(=O)o[nH]4)C[C@@H]2C)CC3)cc(C)c1F` (some centres unmarked) [Compound 67], 67.8 nM. As for `Cc1cc(-n2nc3c(c2-n2ccn(-c4cccc(C#N)c4)c2=O)[C@H](C)N(C(=O)c2cc4cc(C5CCOC(C)(C)C5)ccc4n2[C@@]2(c4nc(=O)o[nH]4)C[C@@H]2C)CC3)cc(C)c1F` (some centres unmarked) [Compound 80], the figure is 11.5 nM; as for `C[C@H]1c2c(nn(-c3ccc(F)c(C4CC4)c3)c2-n2ccn(-c3ccc4c(cnn4C)c3F)c2=O)CCN1C(=O)c1cc2cc([C@@H]3CCOC(C)(C)C3)ccc2n1[C@@]1(c2nc(=O)o[nH]2)C[C@@H]1C` [Compound 1a], 35.5 nM. `Cc1cc(-n2nc3c(c2-n2ccn(-c4ccc(C(=O)N(C)C5CC5)nc4)c2=O)[C@H](C)N(C(=O)c2cc4cc(C5CCOC(C)(C)C5)ccc4n2[C@@]2(c4nc(=O)o[nH]4)C[C@@H]2C)CC3)cc(C)c1F` (some centres unmarked) [Compound 24] gave an EC50 of 54.2 nM. Next, `Cc1cc(-n2nc3c(c2-n2ccn(-c4ccc(C(=O)N(C)C5CC5)c(OCC5CC5)c4)c2=O)[C@H](C)N(C(=O)c2cc4cc(C5CCOC(C)(C)C5)ccc4n2[C@@]2(c4nc(=O)o[nH]4)C[C@@H]2C)CC3)cc(C)c1F` (some centres unmarked) [Compound 43]: 13.2 nM. For the compound `Cc1cc(-n2nc3c(c2-n2ccn(-c4ccc(C#N)cc4F)c2=O)[C@H](C)N(C(=O)c2cc4cc([C@H]5CCOC(C)(C)C5)ccc4n2[C@@]2(c4nc(=O)o[nH]4)C[C@@H]2C)CC3)cc(C)c1F` [Compound 81b], the EC50 came to 3.92 nM. For `Cc1cc(-n2nc3c(c2-n2ccn(-c4ccc(N(C)C5CC5)c(Cl)c4)c2=O)[C@H](C)N(C(=O)c2cc4cc([C@@H]5CCOC(C)(C)C5)ccc4n2[C@@]2(c4noc(=O)[nH]4)C[C@@H]2C)CC3)cc(C)c1F` [Compound 67a], the EC50 is 51.4 nM. As for `Cc1cc(-n2nc3c(c2-n2ccn(-c4ccc(N(C)C5CC5)cc4C(F)(F)F)c2=O)[C@H](C)N(C(=O)c2cc4cc(C5CCOC(C)(C)C5)ccc4n2[C@@]2(c4nc(=O)o[nH]4)C[C@@H]2C)CC3)cc(C)c1F` (some centres unmarked) [Compound 65], the figure is 648 nM; as for `Cc1cc(-n2nc3c(c2-n2ccn(-c4ccc(C(=O)N(C)C5(C(F)(F)F)CC5)cc4)c2=O)[C@H](C)N(C(=O)c2cc4cc(C5CCOC(C)(C)C5)ccc4n2[C@@]2(c4nc(=O)o[nH]4)C[C@@H]2C)CC3)cc(C)c1F` (some centres unmarked) [Compound 16], 10 nM; as for `Cc1cc(-n2nc3c(c2-n2ccn(-c4ccccc4C(=O)N(C)C4CC4)c2=O)[C@H](C)N(C(=O)c2cc4cc(C5CCOC(C)(C)C5)ccc4n2[C@@]2(c4nc(=O)o[nH]4)C[C@@H]2C)CC3)cc(C)c1F` (some centres unmarked) [Compound 39], 11.3 nM.

In the case of `Cc1cc(-n2nc3c(c2-n2ccn(-c4cccc(C(=O)NC5CC5)c4)c2=O)[C@H](C)N(C(=O)c2cc4cc(C5CCOC(C)(C)C5)ccc4n2[C@@]2(c4nc(=O)o[nH]4)C[C@@H]2C)CC3)cc(C)c1F` (some centres unmarked) [Compound 47], the EC50 stood at 65.1 nM. Next, `Cc1cc(-n2nc3c(c2-n2ccn(-c4ccc(N(C)C5CC5)c(F)c4)c2=O)[C@H](C)N(C(=O)c2cc4cc(C5CCOC(C)(C)C5)ccc4n2[C@@]2(c4noc(=O)[nH]4)C[C@@H]2C)CC3)cc(C)c1F` (some centres unmarked) [Compound 68]: 18 nM. Next, `Cc1cc(-n2nc3c(c2-n2ccn(-c4c(F)cccc4C(=O)N(C)C4CC4)c2=O)[C@H](C)N(C(=O)c2cc4cc(C5CCOC(C)(C)C5)ccc4n2[C@@]2(c4nc(=O)o[nH]4)C[C@@H]2C)CC3)cc(C)c1F` (some centres unmarked) [Compound 40]: 155 nM; `Cc1cc(-n2nc3c(c2-n2ccn(-c4ccc(C(=O)N(C)C5(C)CC5)c(F)c4)c2=O)[C@H](C)N(C(=O)c2cc4cc(C5CCOC(C)(C)C5)ccc4n2[C@@]2(c4nc(=O)o[nH]4)C[C@@H]2C)CC3)cc(C)c1F` (some centres unmarked) [Compound 51]: 8.76 nM; `Cc1cc(-n2nc3c(c2-n2ccn(-c4ccc5c(c4)C=CS5(=O)=O)c2=O)[C@H](C)N(C(=O)c2cc4cc([C@H]5CCOC(C)(C)C5)ccc4n2[C@@]2(c4noc(=O)[nH]4)C[C@@H]2C)CC3)cc(C)c1F` [Compound 62b]: 4.53 nM. Next, `Cc1cc(-n2nc3c(c2-n2ccn(-c4ccc(C#N)cc4F)c2=O)[C@H](C)N(C(=O)c2cc4cc(C5CCOC(C)(C)C5)ccc4n2[C@@]2(c4nc(=O)o[nH]4)C[C@@H]2C)CC3)cc(C)c1F` (some centres unmarked) [Compound 81]: 11 nM.

In the case of `Cc1cc(-n2nc3c(c2-n2ccn(-c4ccc(C(=O)N(C)C5CC5)c(C(F)(F)F)c4F)c2=O)[C@H](C)N(C(=O)c2cc4cc([C@H]5CCOC(C)(C)C5)ccc4n2[C@@]2(c4nc(=O)o[nH]4)C[C@@H]2C)CC3)cc(C)c1F` [Compound 14], the EC50 turned out to be 5.61 nM. Next, `Cc1cc(-n2nc3c(c2-n2ccn(-c4ccc(C(=O)N(C)CC#N)cc4)c2=O)[C@H](C)N(C(=O)c2cc4cc(C5CCOC(C)(C)C5)ccc4n2[C@@]2(c4nc(=O)o[nH]4)C[C@@H]2C)CC3)cc(C)c1F` (some centres unmarked) [Compound 44]: 16.9 nM; `Cc1cc(-n2nc3c(c2-n2ccn(-c4ccc(N(C)C(=O)C5CC5)c(F)c4)c2=O)[C@H](C)N(C(=O)c2cc4cc(C5CCOC(C)(C)C5)ccc4n2[C@@]2(c4noc(=O)[nH]4)C[C@@H]2C)CC3)cc(C)c1F` (some centres unmarked) [Compound 63]: 8.69 nM; `Cc1cc(-n2nc3c(c2-n2ccn(-c4ccc5c(c4)CCS5(=O)=O)c2=O)[C@H](C)N(C(=O)c2cc4cc([C@@H]5CCOC(C)(C)C5)ccc4n2[C@@]2(c4nc(=O)o[nH]4)C[C@@H]2C)CC3)cc(C)c1F` [Compound 56a]: 241 nM.

For the compound `Cc1cc(-n2nc3c(c2-n2ccn(-c4ccc(C(=O)N(C)C5CC5)c(OC(F)F)c4)c2=O)[C@H](C)N(C(=O)c2cc4cc(C5CCOC(C)(C)C5)ccc4n2[C@@]2(c4nc(=O)o[nH]4)C[C@@H]2C)CC3)cc(C)c1F` (some centres unmarked) [Compound 31], the midpoint of the response, the EC50, lay at 15.1 nM. As for `Cc1cc(-n2nc3c(c2-n2ccn(-c4ccc(C(F)(F)F)c(C(=O)N(C)C5CC5)c4)c2=O)[C@H](C)N(C(=O)c2cc4cc(C5CCOC(C)(C)C5)ccc4n2[C@@]2(c4nc(=O)o[nH]4)C[C@@H]2C)CC3)cc(C)c1F` (some centres unmarked) [Compound 37], the figure is 18.8 nM.

On to `Cc1cc(-n2nc3c(c2-n2ccn(-c4ccc(C#N)c(C)c4F)c2=O)[C@H](C)N(C(=O)c2cc4cc(C5CCOC(C)(C)C5)ccc4n2[C@@]2(c4nc(=O)o[nH]4)C[C@@H]2C)CC3)cc(C)c1F` (some centres unmarked) [Compound 96], for which the EC50 came to 7.37 nM. Next, `Cc1cc(-n2nc3c(c2-n2ccn(-c4ccc(OC(F)(F)F)c(C#N)c4)c2=O)[C@H](C)N(C(=O)c2cc4cc(C5CCOC(C)(C)C5)ccc4n2[C@@]2(c4nc(=O)o[nH]4)C[C@@H]2C)CC3)cc(C)c1F` (some centres unmarked) [Compound 94]: 21.6 nM; `C[C@H]1c2c(nn(-c3ccc(F)c(OC(F)(F)F)c3)c2-n2ccn(-c3ccc4c(cnn4C)c3F)c2=O)CCN1C(=O)c1cc2cc(C3CCOC(C)(C)C3)ccc2n1[C@@]1(c2nc(=O)o[nH]2)C[C@@H]1C` (some centres unmarked) [Compound 4]: 34.3 nM; `Cc1cc(-n2nc3c(c2-n2ccn(-c4ccc5c(c4)S(=O)(=O)CC5)c2=O)[C@H](C)N(C(=O)c2cc4cc(C5CCOC(C)(C)C5)ccc4n2[C@@]2(c4nc(=O)o[nH]4)C[C@@H]2C)CC3)cc(C)c1F` (some centres unmarked) [Compound 57]: 15.8 nM.

The compound `Cc1cc(-n2nc3c(c2-n2ccn(-c4ccc(N(C)C5CC5)c(C(F)(F)F)c4)c2=O)[C@H](C)N(C(=O)c2cc4cc(C5CCOC(C)(C)C5)ccc4n2[C@@]2(c4nc(=O)o[nH]4)C[C@@H]2C)CC3)cc(C)c1F` (some centres unmarked) [Compound 64] came in with an EC50 of 29 nM. Next, `Cc1cc(-n2nc3c(c2-n2ccn(-c4ccc(C(=O)N(C)C5CC5)nn4)c2=O)[C@H](C)N(C(=O)c2cc4cc(C5CCOC(C)(C)C5)ccc4n2[C@@]2(c4nc(=O)o[nH]4)C[C@@H]2C)CC3)cc(C)c1F` (some centres unmarked) [Compound 30]: 206 nM.
